Measured values as given in ChEMBL document CHEMBL1201862, “PubChem BioAssay data set” (2004).
Activity calls are given as the source filed them.

What was measured:
[1] = target: Ras and Rab interactor 1/Tyrosine-protein kinase ABL1 (Homo sapiens, UniProt P00519+Q13671); assay type: functional;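 also: biochemical TR-FRET dose-response test measuring inhibition of binding between Rin1 and Abl proteins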
[2] = target: T1, Histone-lysine N-methyltransferase NSD2 (Homo sapiens, UniProt O96028); assay type: biochemical
T1 sequence (O96028 whole entry): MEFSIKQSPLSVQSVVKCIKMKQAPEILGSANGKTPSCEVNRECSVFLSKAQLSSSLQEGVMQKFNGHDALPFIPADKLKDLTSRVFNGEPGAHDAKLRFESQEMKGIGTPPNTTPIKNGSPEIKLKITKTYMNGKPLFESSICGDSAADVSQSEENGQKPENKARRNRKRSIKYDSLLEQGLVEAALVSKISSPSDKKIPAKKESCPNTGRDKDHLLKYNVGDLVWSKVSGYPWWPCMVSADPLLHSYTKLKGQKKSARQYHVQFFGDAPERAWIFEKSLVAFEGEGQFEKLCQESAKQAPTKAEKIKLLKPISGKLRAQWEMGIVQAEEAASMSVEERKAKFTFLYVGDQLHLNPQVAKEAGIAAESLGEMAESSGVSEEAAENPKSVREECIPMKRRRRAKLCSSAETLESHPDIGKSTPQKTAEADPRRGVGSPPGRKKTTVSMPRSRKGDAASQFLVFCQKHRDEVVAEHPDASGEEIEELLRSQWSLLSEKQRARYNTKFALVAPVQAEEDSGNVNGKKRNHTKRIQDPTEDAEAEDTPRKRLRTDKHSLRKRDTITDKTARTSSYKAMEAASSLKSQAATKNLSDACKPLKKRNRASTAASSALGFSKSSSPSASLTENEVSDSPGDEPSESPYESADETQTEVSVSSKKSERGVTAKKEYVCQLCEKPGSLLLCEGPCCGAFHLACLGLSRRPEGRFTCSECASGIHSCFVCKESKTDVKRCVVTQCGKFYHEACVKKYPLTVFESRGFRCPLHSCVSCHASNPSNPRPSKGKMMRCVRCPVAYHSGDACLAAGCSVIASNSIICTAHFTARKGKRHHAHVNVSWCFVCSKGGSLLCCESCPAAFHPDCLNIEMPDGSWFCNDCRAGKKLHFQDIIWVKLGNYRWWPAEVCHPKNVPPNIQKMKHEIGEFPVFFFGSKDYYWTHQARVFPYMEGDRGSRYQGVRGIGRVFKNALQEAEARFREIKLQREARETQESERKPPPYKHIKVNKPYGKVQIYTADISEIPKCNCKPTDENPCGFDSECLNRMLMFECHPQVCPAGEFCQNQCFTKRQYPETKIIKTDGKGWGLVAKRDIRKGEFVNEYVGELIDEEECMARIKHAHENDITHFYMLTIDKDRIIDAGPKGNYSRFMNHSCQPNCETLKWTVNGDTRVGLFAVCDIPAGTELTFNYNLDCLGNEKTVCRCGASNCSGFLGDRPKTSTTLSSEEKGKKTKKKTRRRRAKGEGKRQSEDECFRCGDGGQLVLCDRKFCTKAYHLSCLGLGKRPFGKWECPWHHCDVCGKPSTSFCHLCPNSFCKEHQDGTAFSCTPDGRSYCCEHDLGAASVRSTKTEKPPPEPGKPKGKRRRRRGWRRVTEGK

[3] = Shn3 3'UTR reporter inhibitors, dose response, cell-based, Clone20 osteoblasts, firefly luciferase, cherry-picked (AID 624132); assay type: functional;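 also: firefly luciferase luminescence from reporter carrying the Shn3 3'UTR in osteoblasts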
[4] = HepG2 cell cytotoxicity, dose response, cytotoxicity control for Shn3 inhibitor project, CellTiter-Glo, cherry-picked (AID 624134); assay type: functional, cell-based
[5] = control 3'UTR Renilla luciferase suppression, dose response, counter-screen for Shn3 inhibitor project, cell-based, Clone20-Shn3RL, cherry-picked (AID 624133); assay type: functional
Protein Wnt-3a = Protein Wnt-3a (Mus musculus, UniProt P27467); assay: Wnt3a-driven reporter signaling inhibition, dose response, selectivity assay for Gli-SUFU antagonist project, Wnt-LIGHT cells, luminescence (AID 651570); assay type: functional; details: read-out: IC50_Mean;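 also: Wnt-LIGHT reporter cells stimulated with conditioned medium from Wnt3a-producing cells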
[6] = target: T2, COUP transcription factor 2 (Homo sapiens, UniProt P24468); assay: Luminescence-based cell-based high throughput dose response assay to identify inhibitors of COUP-TFII (NR2F2).; assay type: functional;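 also: HEK293 cells transiently cotransfected with COUP-TFII expression vector and reporter; luciferase reporter luminescence driven by COUP-TFII from the pX2-168 reporter plasmid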
T2 sequence (P24468 whole entry): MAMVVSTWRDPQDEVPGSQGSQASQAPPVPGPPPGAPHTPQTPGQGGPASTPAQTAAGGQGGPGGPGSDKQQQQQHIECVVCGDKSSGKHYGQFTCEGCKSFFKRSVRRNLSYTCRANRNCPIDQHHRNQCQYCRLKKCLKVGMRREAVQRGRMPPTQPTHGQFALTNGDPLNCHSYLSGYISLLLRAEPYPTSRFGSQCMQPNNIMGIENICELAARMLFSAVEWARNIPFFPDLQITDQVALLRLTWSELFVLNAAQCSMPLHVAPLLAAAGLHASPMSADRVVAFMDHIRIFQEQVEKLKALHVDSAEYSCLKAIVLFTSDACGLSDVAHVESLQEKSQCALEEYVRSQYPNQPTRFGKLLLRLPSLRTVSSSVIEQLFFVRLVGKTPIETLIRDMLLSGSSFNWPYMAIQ

CHO-K1 = assay: (§1) Counterscreen for antagonists of the orexin 1 receptor (OX1R; HCRTR1): Homogeneous time resolved fluorescence (HTRF)-based cell-based dose response assay to identify antagonists of the parental CHO-K1 cell line. [Related pubchem assays (depositor defined):AID434989, AID435008, AID463079, AID485270, AID492963, AID492964, AID492965, AID493232, AID504699, AID504701]; assay type: functional; details: Cricetulus griseus
[7] = as §1, with “Fluorescence-based” for “Homogeneous time resolved fluorescence (HTRF)-based”, “cell-based high throughput” for “cell-based”, “CHO” for “CHO-K1”; assay type: functional
[8] = target: T3, Orexin/Hypocretin receptor type 1 (Homo sapiens, UniProt O43613); assay: Homogeneous Time Resolved Fluorescence (HTRF)-based cell-based high throughput dose response assay for antagonists of the orexin 1 receptor (OX1R; HCRTR1). [Related pubchem assays (depositor defined):AID434989, AID435008, AID463079, AID485270, AID492963, AID492964, AID492965, AID493232, AID504717, AID504718]; assay type: functional
T3 sequence (O43613 whole entry): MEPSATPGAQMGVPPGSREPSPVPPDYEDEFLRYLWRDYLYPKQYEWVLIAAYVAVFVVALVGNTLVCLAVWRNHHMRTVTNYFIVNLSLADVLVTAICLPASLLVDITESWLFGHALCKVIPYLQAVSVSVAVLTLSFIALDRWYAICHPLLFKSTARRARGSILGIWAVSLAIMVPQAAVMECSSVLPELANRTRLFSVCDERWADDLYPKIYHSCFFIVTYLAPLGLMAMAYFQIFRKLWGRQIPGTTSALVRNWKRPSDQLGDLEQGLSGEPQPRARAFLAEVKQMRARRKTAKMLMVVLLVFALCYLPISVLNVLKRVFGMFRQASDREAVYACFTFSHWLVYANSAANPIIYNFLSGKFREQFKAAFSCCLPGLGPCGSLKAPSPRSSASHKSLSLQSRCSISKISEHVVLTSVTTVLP

[9] = target: T3, Orexin/Hypocretin receptor type 1; assay: Fluorescence-based cell-based high throughput dose response assay for antagonists of the orexin 1 receptor (OX1R; HCRTR1). [Related pubchem assays (depositor defined):AID434989, AID435008, AID463079, AID485270, AID492963, AID492964, AID492965, AID493232, AID504717, AID504718]; assay type: functional
Orexin receptor type 2 [10] = target: T4, Orexin receptor type 2 (Homo sapiens, UniProt O43614); assay: Counterscreen assay for antagonists of the orexin 1 receptor (OX1R; HCRTR1): Fluorescence-based cell-based dose response assay for antagonists of the orexin 2 receptor (OX2R; HCRTR2), run by assay provider.; assay type: functional
T4 sequence (O43614 whole entry): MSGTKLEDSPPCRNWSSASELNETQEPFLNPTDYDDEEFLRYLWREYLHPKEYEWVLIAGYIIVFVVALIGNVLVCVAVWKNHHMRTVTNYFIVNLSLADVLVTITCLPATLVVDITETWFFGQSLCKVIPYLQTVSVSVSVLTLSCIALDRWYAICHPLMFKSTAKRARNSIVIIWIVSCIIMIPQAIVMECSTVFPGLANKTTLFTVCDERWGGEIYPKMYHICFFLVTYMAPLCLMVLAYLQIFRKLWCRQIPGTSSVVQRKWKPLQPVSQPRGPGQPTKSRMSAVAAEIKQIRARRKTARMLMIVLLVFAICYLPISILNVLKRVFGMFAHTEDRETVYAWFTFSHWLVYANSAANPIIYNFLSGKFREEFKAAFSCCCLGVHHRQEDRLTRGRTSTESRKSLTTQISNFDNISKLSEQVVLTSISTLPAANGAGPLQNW

Orexin receptor type 2 [11] = target: T4, Orexin receptor type 2; assay: Counterscreen assay for antagonists of the orexin 1 receptor (OX1R; HCRTR1): Homogeneous Time Resolved Fluorescence (HTRF)-based cell-based dose response assay for antagonists of the orexin 2 receptor (OX2R; HCRTR2), run by assay provider.; assay type: functional
[12] = target: Luciferin 4-monooxygenase (Photinus pyralis, UniProt P08659); assay: firefly luciferase enzyme inhibitors, dose response, biochemical, luminescence (AID 1891)
[13] = Luminescence Cell-Based Dose Confirmation HTS to Identify Inhibitors of Platelet Dense Granule Release. [Related pubchem assays: 1663 (Primary HTS), 1678 (Summary of Project)]; assay type: functional
[14] = HepG2 cell cytotoxicity, dose response, cytotoxicity control, ATP luminescence, cherry-pick, activator set 2 (AID 1053143); assay type: functional, cell-based
[15] = target: Heat shock protein HSP 90-alpha (Homo sapiens, UniProt P07900); assay type: functional, organism-based
[16] = target: Mitochondrial peptide methionine sulfoxide reductase (Bos taurus, UniProt P54149); assay: Absorbance-based biochemical high throughput dose response assay for activators of Methionine sulfoxide reductase A (MsrA).; assay type: functional
[17] = target: T5, Tyrosyl-DNA phosphodiesterase 2 (Homo sapiens, UniProt O95551); assay: human TDP2 enzyme inhibitors, dose response, biochemical, epi absorbance, IC50 (AID 743297)
T5 sequence (O95551 whole entry): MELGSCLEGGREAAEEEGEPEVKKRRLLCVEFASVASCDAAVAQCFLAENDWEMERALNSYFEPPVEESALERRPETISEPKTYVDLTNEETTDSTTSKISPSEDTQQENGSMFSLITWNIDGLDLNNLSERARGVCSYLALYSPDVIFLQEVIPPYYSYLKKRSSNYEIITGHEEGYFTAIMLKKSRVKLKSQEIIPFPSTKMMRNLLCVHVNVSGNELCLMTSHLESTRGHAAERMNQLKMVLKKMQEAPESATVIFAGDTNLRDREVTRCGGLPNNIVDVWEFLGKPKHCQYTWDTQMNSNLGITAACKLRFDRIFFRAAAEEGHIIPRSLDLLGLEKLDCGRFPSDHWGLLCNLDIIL

[18] = target: T6, RNA-editing ligase 1, mitochondrial (Trypanosoma brucei brucei, UniProt P86926); assay: TbREL1 ligase inhibitors, dose response, biochemical, fluorescence, Trypanosoma brucei (AID 1117295); assay type: functional
T6 sequence (P86926 whole entry): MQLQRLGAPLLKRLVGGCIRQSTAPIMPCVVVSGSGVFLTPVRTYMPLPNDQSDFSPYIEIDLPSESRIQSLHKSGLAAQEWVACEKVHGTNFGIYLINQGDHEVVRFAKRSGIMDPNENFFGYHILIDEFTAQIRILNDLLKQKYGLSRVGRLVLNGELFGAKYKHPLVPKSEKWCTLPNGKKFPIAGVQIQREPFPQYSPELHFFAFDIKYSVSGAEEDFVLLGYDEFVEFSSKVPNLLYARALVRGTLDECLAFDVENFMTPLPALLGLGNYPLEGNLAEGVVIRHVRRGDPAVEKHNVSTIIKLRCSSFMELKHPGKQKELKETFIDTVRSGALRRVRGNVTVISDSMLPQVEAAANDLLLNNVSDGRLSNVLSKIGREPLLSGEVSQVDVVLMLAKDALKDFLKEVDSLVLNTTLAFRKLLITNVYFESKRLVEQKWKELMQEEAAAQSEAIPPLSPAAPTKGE

Sequence of Ras and Rab interactor 1/Tyrosine-protein kinase ABL1 (P00519 whole entry): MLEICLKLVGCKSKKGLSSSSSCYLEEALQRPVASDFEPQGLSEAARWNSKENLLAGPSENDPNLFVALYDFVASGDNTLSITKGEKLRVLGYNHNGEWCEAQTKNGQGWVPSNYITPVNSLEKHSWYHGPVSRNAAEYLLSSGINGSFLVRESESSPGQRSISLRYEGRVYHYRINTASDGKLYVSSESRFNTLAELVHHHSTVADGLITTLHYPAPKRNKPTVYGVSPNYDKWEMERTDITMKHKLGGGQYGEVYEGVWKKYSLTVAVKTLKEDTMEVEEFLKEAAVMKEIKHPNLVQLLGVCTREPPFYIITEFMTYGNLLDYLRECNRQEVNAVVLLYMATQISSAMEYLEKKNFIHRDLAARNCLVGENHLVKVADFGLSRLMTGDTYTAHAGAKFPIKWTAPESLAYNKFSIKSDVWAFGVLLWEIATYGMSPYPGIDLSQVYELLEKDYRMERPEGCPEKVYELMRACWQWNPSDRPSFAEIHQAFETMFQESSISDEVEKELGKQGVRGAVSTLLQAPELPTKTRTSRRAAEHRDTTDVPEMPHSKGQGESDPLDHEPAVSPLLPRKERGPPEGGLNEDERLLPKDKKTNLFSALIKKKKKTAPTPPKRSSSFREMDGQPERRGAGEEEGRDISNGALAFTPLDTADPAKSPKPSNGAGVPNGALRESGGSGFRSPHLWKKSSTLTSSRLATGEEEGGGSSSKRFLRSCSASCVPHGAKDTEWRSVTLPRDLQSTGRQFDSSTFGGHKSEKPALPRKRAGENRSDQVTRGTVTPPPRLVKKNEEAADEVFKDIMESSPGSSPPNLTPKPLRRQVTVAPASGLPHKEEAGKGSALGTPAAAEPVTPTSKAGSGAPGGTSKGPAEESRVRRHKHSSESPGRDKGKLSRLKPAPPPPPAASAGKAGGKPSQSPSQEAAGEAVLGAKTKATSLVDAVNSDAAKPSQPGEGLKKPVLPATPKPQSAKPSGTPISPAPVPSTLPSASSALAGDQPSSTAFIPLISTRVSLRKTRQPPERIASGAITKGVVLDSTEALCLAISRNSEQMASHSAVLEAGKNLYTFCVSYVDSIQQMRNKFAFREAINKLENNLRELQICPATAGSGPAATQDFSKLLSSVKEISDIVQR
Sequence of Ras and Rab interactor 1/Tyrosine-protein kinase ABL1 (Q13671 whole entry): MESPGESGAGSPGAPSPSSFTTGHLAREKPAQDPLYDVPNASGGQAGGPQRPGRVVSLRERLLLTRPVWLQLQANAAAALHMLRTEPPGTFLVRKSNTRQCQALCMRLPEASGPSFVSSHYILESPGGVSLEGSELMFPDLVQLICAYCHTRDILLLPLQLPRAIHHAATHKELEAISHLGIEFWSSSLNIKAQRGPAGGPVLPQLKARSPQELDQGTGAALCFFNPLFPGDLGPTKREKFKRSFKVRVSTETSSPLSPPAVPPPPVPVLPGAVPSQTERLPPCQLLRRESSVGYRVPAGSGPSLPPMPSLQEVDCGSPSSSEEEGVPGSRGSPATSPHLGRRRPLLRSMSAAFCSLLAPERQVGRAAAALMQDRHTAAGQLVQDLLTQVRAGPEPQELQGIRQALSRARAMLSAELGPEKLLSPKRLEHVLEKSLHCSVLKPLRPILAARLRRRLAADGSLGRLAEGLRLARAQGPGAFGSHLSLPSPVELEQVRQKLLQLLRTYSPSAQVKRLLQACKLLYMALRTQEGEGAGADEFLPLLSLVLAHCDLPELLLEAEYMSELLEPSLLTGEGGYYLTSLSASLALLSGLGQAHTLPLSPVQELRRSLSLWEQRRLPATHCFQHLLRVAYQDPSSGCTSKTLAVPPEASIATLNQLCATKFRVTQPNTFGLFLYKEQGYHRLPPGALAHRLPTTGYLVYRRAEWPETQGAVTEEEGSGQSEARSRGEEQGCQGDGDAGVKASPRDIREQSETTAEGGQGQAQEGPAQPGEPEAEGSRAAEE
Sequence of Protein Wnt-3a (P27467 whole entry): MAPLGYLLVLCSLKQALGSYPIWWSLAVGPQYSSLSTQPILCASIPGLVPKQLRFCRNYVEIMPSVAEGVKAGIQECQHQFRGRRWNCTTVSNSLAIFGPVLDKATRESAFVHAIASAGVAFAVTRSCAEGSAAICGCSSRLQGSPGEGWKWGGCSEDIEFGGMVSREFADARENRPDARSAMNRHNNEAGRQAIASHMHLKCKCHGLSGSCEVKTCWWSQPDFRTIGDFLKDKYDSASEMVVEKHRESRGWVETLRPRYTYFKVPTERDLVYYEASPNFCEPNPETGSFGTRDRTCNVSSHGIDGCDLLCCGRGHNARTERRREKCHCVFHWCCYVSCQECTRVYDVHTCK
Sequence of Mitochondrial peptide methionine sulfoxide reductase (P54149 whole entry): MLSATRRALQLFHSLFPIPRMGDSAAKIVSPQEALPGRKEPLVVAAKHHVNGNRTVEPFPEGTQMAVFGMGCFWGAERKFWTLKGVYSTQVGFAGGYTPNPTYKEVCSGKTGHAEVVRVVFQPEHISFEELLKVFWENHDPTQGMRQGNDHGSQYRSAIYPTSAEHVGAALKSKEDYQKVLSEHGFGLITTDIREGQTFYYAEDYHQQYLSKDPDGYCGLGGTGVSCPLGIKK
Sequence of Luciferin 4-monooxygenase (P08659 whole entry): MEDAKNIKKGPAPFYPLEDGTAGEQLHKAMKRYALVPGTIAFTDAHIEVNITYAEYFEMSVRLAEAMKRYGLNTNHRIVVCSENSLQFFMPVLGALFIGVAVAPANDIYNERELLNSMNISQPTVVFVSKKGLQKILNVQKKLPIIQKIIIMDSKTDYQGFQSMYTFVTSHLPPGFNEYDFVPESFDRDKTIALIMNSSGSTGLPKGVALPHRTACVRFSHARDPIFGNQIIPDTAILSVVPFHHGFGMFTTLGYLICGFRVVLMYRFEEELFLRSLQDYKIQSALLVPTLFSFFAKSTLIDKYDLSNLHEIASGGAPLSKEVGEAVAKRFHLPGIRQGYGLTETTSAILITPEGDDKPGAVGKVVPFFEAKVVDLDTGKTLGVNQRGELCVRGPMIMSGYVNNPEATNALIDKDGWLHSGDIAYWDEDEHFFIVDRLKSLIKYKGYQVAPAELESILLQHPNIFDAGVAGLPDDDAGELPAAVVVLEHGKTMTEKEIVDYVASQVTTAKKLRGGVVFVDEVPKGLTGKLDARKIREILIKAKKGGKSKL

Cn1c(=O)c2c(nc(-n3ccnc3)n2Cc2ccc(Cl)cc2Cl)n(C)c1=O
IC50 [1]: 2.62 µM (active)

CCOC(=O)CCCCC(=O)c1[nH]c(O)nc1CSc1nc2ccccc2[nH]1
IC50 [1]: 0.0967 µM (active)
AC50 [2]: 7.6 µM (active)

CC1C(OC(=O)CCC(=O)NC(C)(C)CO)O[C@H]2OC3(C)CC[C@H]4[C@H](C)CCC1C24OO3 (some centres not stated)
AC50 [3]: 0.495 µM (active)
AC50 [4]: > 70 µM (inactive)
AC50 [5]: 0.841 µM (active)
IC50 (Protein Wnt-3a): 0.794 µM (active)
IC50 [6]: > 85.4 µM (inactive)

CCOC(=O)N1CCN(C(=O)CSc2ccc(-c3ccccc3)nn2)CC1
IC50 (CHO-K1): > 66.2 µM (inactive)
IC50 [7]: > 49.7 µM (inactive)
IC50 [8]: 2.12 µM (active)
IC50 [9]: 16.3 µM (inactive)
IC50 (Orexin receptor type 2 [10]): > 88.8 µM (inactive)
IC50 (Orexin receptor type 2 [11]): > 50 µM (inactive)

COc1cccc2oc3ccc(C#Cc4ccccn4)cc3c(=O)c12
EC50 [12]: 1.19 µM (active)
EC50 [13]: 5.1 µM (active)
IC50 (CHO-K1): > 66.2 µM (inactive)
IC50 [7]: > 49.8 µM (inactive)
IC50 [8]: 0.881 µM (active)
IC50 [9]: 13.5 µM (inactive)
IC50 (Orexin receptor type 2 [10]): > 88.8 µM (inactive)
IC50 (Orexin receptor type 2 [11]): 0.82 µM (active)
AC50 [14]: 16.4 µM (active)

Cc1noc(C)c1COc1ccc(C(=O)OCC(=O)N2CC(=O)Nc3ccccc32)cc1
IC50 (CHO-K1): > 66.2 µM (inactive)
IC50 [7]: > 49.8 µM (inactive)
IC50 [8]: 14.9 µM (inactive)
IC50 [9]: 0.861 µM (active)
IC50 (Orexin receptor type 2 [10]): > 88.8 µM (inactive)
IC50 (Orexin receptor type 2 [11]): > 50 µM (inactive)

Cc1c(CCCl)c(Cl)n2c(nc3ccccc32)c1C#N
AC50 [15]: 3.86 µM (active)
AC50 [3]: 0.912 µM (active)
AC50 [4]: 8.13 µM (active)
AC50 [5]: 2.98 µM (active)

COC1=CC(=O)c2nc(Cl)ccc2C1=O
EC50 [16]: 44.4 µM (inactive)
AC50 [2]: 4.32 µM (active)
IC50 [17]: 4.46 µM (active)
IC50 [18]: 28.3 µM (inactive)
